Measurements reported in ChEMBL document CHEMBL5543075, “Phenoxytacrine derivatives: Low-toxicity neuroprotectants exerting affinity to ifenprodil-binding site and cholinesterase inhibition” (Eur J Med Chem, 2024).
Active and inactive are the calls of the source. The calls are words filed in the database; no cut-off is given here.

Legend:
[1] = Cytotoxicity against CHO-K1 cells incubated for 24 hrs by MTT assay; format: toxicity, cell-based, Cricetulus griseus; conditions: Chinese hamster
[2] = target: Acetylcholinesterase (Homo sapiens, UniProt P22303); test: Inhibition of human AChE by spectrophotometric Ellman's method
Acetylcholinesterase, sequence (P22303 whole entry): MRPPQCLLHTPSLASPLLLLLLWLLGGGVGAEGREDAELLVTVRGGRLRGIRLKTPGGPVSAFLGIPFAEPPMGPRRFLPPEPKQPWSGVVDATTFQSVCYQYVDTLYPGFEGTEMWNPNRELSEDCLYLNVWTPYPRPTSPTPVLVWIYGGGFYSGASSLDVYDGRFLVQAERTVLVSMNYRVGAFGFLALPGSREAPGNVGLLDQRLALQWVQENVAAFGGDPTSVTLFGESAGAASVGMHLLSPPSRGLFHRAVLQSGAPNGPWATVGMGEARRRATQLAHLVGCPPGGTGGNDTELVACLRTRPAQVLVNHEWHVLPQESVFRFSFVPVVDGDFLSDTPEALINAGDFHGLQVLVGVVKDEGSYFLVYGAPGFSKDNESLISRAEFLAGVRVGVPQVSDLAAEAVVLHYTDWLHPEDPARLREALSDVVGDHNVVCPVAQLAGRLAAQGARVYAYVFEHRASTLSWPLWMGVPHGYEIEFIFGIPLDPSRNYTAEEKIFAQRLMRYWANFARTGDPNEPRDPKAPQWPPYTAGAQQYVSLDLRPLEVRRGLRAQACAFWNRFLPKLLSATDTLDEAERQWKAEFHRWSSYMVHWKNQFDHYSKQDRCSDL

[3] = target: Cholinesterase (Homo sapiens, UniProt P06276); test: Inhibition of human BChE by spectrophotometric Ellman's method
Cholinesterase, sequence (P06276 whole entry): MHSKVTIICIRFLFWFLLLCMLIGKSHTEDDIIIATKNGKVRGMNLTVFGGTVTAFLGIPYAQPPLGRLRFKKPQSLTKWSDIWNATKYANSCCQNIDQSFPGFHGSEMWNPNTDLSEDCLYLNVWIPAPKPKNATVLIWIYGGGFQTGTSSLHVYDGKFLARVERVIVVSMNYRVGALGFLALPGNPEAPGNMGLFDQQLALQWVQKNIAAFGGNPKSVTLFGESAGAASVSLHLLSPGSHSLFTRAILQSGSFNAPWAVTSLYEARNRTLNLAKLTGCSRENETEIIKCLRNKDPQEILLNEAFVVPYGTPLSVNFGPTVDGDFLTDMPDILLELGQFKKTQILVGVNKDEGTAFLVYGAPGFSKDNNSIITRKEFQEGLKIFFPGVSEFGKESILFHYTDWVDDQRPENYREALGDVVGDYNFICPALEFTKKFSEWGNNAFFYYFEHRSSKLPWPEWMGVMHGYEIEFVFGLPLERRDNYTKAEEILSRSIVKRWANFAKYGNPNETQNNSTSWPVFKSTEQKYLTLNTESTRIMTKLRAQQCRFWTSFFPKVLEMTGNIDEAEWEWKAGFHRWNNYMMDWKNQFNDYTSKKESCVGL

[4] = target: T1, Glutamate NMDA receptor; GRIN1/GRIN2B (Homo sapiens, UniProt Q05586+Q13224); test: Inhibition of recombinant human GluN1/GluN2B receptor expressed in HEK293 cells assessed as reduction in glutamate induced current at 1 uM at -60 mV holding potential by electrophysiology assay relative to control; format: cell-based
[5] = target: T2, Glutamate NMDA receptor; GRIN1/GRIN2A (Homo sapiens, UniProt Q05586+Q12879); test: Inhibition of recombinant wild type human GluN1/GluN2A receptor expressed in HEK293 cells assessed as reduction in glutamate induced current at -60 mV holding potential by electrophysiology assay; format: cell-based
T2 sequence (Q12879 whole entry, other chains not shown): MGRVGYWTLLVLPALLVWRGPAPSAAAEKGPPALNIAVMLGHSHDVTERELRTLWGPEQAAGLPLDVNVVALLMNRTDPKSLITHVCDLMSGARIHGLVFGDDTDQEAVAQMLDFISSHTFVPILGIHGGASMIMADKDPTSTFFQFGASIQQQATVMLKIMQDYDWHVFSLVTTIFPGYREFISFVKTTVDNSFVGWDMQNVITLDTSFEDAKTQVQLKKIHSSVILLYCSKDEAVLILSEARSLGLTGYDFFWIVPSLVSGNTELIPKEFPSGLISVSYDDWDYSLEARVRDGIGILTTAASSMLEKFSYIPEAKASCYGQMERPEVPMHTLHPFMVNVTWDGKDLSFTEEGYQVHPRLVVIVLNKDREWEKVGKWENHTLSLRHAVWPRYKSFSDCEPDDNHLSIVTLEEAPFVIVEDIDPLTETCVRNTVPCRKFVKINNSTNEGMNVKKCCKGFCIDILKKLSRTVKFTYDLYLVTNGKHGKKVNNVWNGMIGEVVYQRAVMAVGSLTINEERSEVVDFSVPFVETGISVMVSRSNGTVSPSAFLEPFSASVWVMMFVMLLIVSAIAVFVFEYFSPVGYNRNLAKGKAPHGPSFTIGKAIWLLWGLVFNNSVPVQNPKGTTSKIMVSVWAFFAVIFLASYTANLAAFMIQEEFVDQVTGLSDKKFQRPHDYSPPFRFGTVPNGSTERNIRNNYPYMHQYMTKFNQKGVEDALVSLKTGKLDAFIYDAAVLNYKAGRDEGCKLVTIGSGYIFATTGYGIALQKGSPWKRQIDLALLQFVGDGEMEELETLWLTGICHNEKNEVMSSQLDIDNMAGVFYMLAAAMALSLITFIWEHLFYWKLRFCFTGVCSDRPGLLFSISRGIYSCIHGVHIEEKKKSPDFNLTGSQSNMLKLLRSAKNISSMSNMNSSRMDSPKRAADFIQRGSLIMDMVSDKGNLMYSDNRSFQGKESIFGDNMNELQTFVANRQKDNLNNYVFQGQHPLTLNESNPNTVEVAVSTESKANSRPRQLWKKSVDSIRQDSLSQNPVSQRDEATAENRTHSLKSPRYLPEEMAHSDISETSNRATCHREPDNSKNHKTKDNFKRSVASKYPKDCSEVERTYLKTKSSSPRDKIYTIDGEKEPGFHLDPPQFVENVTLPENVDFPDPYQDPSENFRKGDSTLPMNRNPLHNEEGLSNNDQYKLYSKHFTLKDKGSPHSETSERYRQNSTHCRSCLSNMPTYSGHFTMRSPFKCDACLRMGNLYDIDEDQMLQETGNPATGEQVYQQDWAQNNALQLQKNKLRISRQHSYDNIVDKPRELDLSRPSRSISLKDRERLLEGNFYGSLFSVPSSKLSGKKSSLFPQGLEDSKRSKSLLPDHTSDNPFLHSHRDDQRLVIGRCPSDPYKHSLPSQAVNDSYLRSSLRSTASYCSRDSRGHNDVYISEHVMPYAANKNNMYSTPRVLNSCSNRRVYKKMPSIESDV

[6] = target: T1, Glutamate NMDA receptor; GRIN1/GRIN2B; test: Inhibition of recombinant wild type human GluN1/GluN2B receptor expressed in HEK293 cells assessed as reduction in glutamate induced current at -60 mV holding potential by electrophysiology assay; format: cell-based
[7] = Inhibition of recombinant human GluN1 deltaATD/GluN2B receptor expressed in HEK293 cells assessed as reduction in glutamate induced current at -60 mV holding potential by electrophysiology assay; format: cell-based
[8] = Inhibition of recombinant human GluN1 F113A /GluN2B receptor expressed in HEK293 cells assessed as reduction in glutamate induced current at -60 mV holding potential by electrophysiology assay; format: cell-based
[9] = Inhibition of recombinant human GluN1 Y109C /GluN2B receptor expressed in HEK293 cells assessed as reduction in glutamate induced current at -60 mV holding potential by electrophysiology assay; format: cell-based
[10] = Inhibition of recombinant human GluN1/GluN2B Q110F mutant receptor expressed in HEK293 cells assessed as reduction in glutamate induced current at -60 mV holding potential by electrophysiology assay; format: cell-based
[11] = Inhibition of recombinant human GluN1/GluN2B F114A mutant receptor expressed in HEK293 cells assessed as reduction in glutamate induced current at -60 mV holding potential by electrophysiology assay; format: cell-based
[12] = target: T2, Glutamate NMDA receptor; GRIN1/GRIN2A; test: Inhibition of recombinant wild type human GluN1/GluN2A receptor expressed in HEK293 cells assessed as reduction in glutamate induced current at -40 mV holding potential by electrophysiology assay; format: cell-based
[13] = target: T1, Glutamate NMDA receptor; GRIN1/GRIN2B; test: Inhibition of recombinant wild type human GluN1/GluN2B receptor expressed in HEK293 cells assessed as reduction in glutamate induced current at -40 mV holding potential by electrophysiology assay; format: cell-based
[14] = Inhibition of recombinant human GluN1 deltaATD/GluN2B receptor expressed in HEK293 cells assessed as reduction in glutamate induced current at -40 mV holding potential by electrophysiology assay; format: cell-based
[15] = Inhibition of recombinant human GluN1 F113A /GluN2B receptor expressed in HEK293 cells assessed as reduction in glutamate induced current at -40 mV holding potential by electrophysiology assay; format: cell-based
[16] = Inhibition of recombinant human GluN1 Y109C /GluN2B receptor expressed in HEK293 cells assessed as reduction in glutamate induced current at -40 mV holding potential by electrophysiology assay; format: cell-based
[17] = Inhibition of recombinant human GluN1/GluN2B Q110F mutant receptor expressed in HEK293 cells assessed as reduction in glutamate induced current at -40 mV holding potential by electrophysiology assay; format: cell-based
[18] = Inhibition of recombinant human GluN1/GluN2B F114A mutant receptor expressed in HEK293 cells assessed as reduction in glutamate induced current at -40 mV holding potential by electrophysiology assay; format: cell-based
[19] = Toxicity in Wistar rat assessed as no observed adverse effect level (NOAEL) at 5 mg/kg, ip; format: organism-based; conditions: in vivo
[20] = Toxicity in Wistar rat assessed as reduction in breathing at 10 mg/kg, ip; format: organism-based; conditions: in vivo
[21] = Toxicity in Wistar rat assessed as loss of activity at 10 mg/kg, ip; format: organism-based; conditions: in vivo
[22] = system: Rattus norvegicus; test: Antipsychotic activity in Wistar rat assessed as effect on locomotor activity at 5 mg/kg, ip measured after 10 mins by open field test; format: functional, organism-based
[23] = system: Rattus norvegicus; test: Antipsychotic activity in Wistar rat assessed as effect on pre-pulse inhibition of acoustic startle response at 5 mg/kg, ip measured after 10 mins by pre-pulse inhibition test; format: functional, organism-based
[24] = system: Rattus norvegicus; test: Antialzheimer activity against scopolamine-induced cognitive impairment in Wistar rat assessed as decrease in latency to reach platform at 5 mg/kg, ip measured upto 4 days by morris water maze test; format: functional, organism-based; conditions: time <= 4.0 day
[25] = system: Rattus norvegicus; test: Antialzheimer activity against scopolamine-induced cognitive impairment in Wistar rat assessed as decrease in mean distance from platform at 5 mg/kg, ip measured upto 4 days by morris water maze test (reference value: 51.7 +/-1.5 cm); format: functional; conditions: time <= 4 day
[26] = system: Rattus norvegicus; test: Antialzheimer activity against scopolamine-induced cognitive impairment in Wistar rat assessed as increase in number of platform crossing at 5 mg/kg, ip measured upto 4 days by morris water maze test; format: functional, organism-based; conditions: time <= 4.0 day
[27] = in vitro; conditions: human, liver microsomes
Description: Metabolic stability in human liver microsomes assessed as half life at 3 uM measured upto 45 min in presence of NADPH regenerating system by LC-MS analysis

[28] = in vitro; conditions: human, liver microsomes; remark: listed apart in the source
Description: Metabolic stability in human liver microsomes assessed as intrinsic clearance at 3 uM measured upto 45 min in presence of NADPH regenerating system by LC-MS analysis

[29] = system: Rattus norvegicus; test: Antialzheimer activity against scopolamine-induced cognitive impairment in Wistar rat assessed as decrease in mean distance from platform at 2 mg/kg, ip measured upto 4 days by morris water maze test (reference value: 51.7 +/-1.5 cm); format: functional; conditions: time <= 4 day
[30] = system: Rattus norvegicus; test: Antialzheimer activity against scopolamine-induced cognitive impairment in Wistar rat assessed as increase in number of platform crossing at 2 mg/kg, ip measured upto 4 days by morris water maze test; format: functional, organism-based; conditions: time <= 4.0 day
[31] = system: Rattus norvegicus; test: Antipsychotic activity in Wistar rat assessed as effect on locomotor activity at 0.2 mg/kg, ip measured after 10 mins by open field test; format: functional, organism-based
[32] = system: Rattus norvegicus; test: Antipsychotic activity in Wistar rat assessed as effect on pre-pulse inhibition of acoustic startle response at 0.3 mg/kg, ip measured after 10 mins by pre-pulse inhibition test; format: functional, organism-based

Cc1ccc(Oc2ccc3nc4c(c(N)c3c2)CCCCC4)cc1
IC50 at 24 h [1]: 140 µM | IC50 [2]: 3.79 µM | IC50 [3]: 2.78 µM | inhibition [4]: 11.9%

COc1ccc(Oc2ccc3nc4c(c(N)c3c2)CCC4)cc1
IC50 at 24 h [1]: 81 µM | IC50 [2]: 4.24 µM | IC50 [3]: 14.5 µM | inhibition [4]: 22.7%

Cc1cccc(Oc2ccc3nc4c(c(N)c3c2)CCC4)c1
IC50 at 24 h [1]: 34 µM | IC50 [2]: 5.28 µM | IC50 [3]: 2.81 µM | inhibition [4]: 18.1%

Cc1ccc(Oc2ccc3nc4c(c(N)c3c2)CCCC4)cc1
IC50 at 24 h [1]: 20 µM | IC50 [2]: 3.29 µM | IC50 [3]: 1.95 µM | inhibition [4]: 18%

COc1cccc(Oc2ccc3nc4c(c(N)c3c2)CCC4)c1
IC50 at 24 h [1]: 85 µM | IC50 [2]: 5.25 µM | IC50 [3]: 7.96 µM | inhibition [4]: 16%

Nc1c2c(nc3ccc(Oc4ccccc4)cc13)CCCCC2
IC50 at 24 h [1]: 38 µM | IC50 [2]: 5.36 µM | IC50 [3]: 1.4 µM | inhibition [4]: 34.9%

COc1ccccc1Oc1ccc2nc3c(c(N)c2c1)CCCC3.Cl
IC50 at 24 h [1]: 43 µM | IC50 [2]: 0.84 µM | IC50 [3]: 0.44 µM | inhibition [4]: 25.7% | IC50 [5]: 10.1 µM | IC50 [6]: 3.6 µM | IC50 [7]: 11.1 µM | IC50 [8]: 1.7 µM | IC50 [9]: 9.5 µM | IC50 [10]: 9.5 µM | IC50 [11]: 9.4 µM | IC50 [12]: 43.8 µM | IC50 [13]: 6.8 µM | IC50 [14]: 47.2 µM | IC50 [15]: 2.1 µM | IC50 [16]: 8.4 µM | IC50 [17]: 10.3 µM | IC50 [18]: 31.9 µM | Activity [19]: Non-Toxic | Activity [20]: Toxic | Activity [21]: Toxic | Activity [22]: inactive | Activity [23]: inactive | Activity [24]: inactive | Activity [25]: 78.7 cm | Activity [26]: inactive | half-life at 0.75 h, 3 µM [27]: 2.69 h | microsomal CLint at 0.75 h, 3 µM [28]: 8.61 µL/min/mg

Cc1cccc(Oc2ccc3nc4c(c(N)c3c2)CCCCC4)c1
IC50 at 24 h [1]: 13 µM | IC50 [2]: 12.3 µM | IC50 [3]: 2.74 µM | inhibition [4]: 14.8%

Cc1ccccc1Oc1ccc2nc3c(c(N)c2c1)CCC3.Cl
IC50 at 24 h [1]: 78 µM | IC50 [2]: 28.2 µM | inhibition [4]: 16.6% | Activity [29]: 59.5 cm | Activity [30]: Active

COc1ccc(Oc2ccc3nc4c(c(N)c3c2)CCCCC4)cc1
IC50 at 24 h [1]: 28 µM | IC50 [2]: 3.63 µM | IC50 [3]: 2.74 µM | inhibition [4]: 29.6%

Cc1cccc(Oc2ccc3nc4c(c(N)c3c2)CCCC4)c1
IC50 at 24 h [1]: 20 µM | IC50 [2]: 9.19 µM | IC50 [3]: 3.66 µM | inhibition [4]: 21.2%

C[C@]12N[C@H](Cc3ccccc31)c1ccccc12
Activity [31]: Active | Activity [32]: Active

COc1ccccc1Oc1ccc2nc3c(c(N)c2c1)CCCCC3
IC50 at 24 h [1]: 74 µM | IC50 [2]: 9.62 µM | IC50 [3]: 5.48 µM | inhibition [4]: 57.6%

CC(C)(C)c1ccc(Oc2ccc3nc4c(c(N)c3c2)CCCCC4)cc1
IC50 at 24 h [1]: 9 µM | IC50 [2]: 71.6 µM | IC50 [3]: 2.51 µM | inhibition [4]: 10.1%

Cc1cc(C)cc(Oc2ccc3nc4c(c(N)c3c2)CCCCC4)c1
IC50 at 24 h [1]: 30 µM | IC50 [2]: 0.99 µM | IC50 [3]: 5.27 µM | inhibition [4]: 7.8%

Cc1ccc(Oc2ccc3nc4c(c(N)c3c2)CCC4)cc1
IC50 at 24 h [1]: 76 µM | IC50 [2]: 8.36 µM | IC50 [3]: 7.34 µM | inhibition [4]: 18.7%
